The target in the test is PDE5A1 (Homo sapiens, UniProt O76074). Briefly: cGMP hydrolysis by purified PDE5A1, cGMP Lumit bioluminescent readout. It counts as biochemical.

This note sets out measurements from paper PMC10714432 (ACS Pharmacology & Translational Science, 2023).

The structures appear in SMILES notation.

As for `CC(C)Cn1c(=O)n(C)c(=O)c2[nH]cnc21` [IBMX], the IC50 (in general, the midpoint of a concentration-inhibition curve) came out at 3.8 µM.
